These results are taken from publication PMC10766964, “Copper-catalyzed synthesis of pyrazolo[1,5-a]pyrimidine based triazole-linked glycohybrids: mechanistic insights and bio-applications” (Scientific Reports, 2024).

Common to all, as to format: cell-based
The subject of series [1] is MCF-7 (hormone receptor/HR-positive breast cancer cells). Kind of series: MTT cell viability assay in MCF-7 cells. Conditions: Homo sapiens, MCF7, read-out: Cell viability (%) ± SD; for viability at 1 µM: MCF-7, 1 µM; for viability at 10 µM: MCF-7, 10 µM; for viability at 25 µM: MCF-7, 25 µM. The procedure:
MDA-MB-231 represents a specific subtype known as triple-negative breast cancer (TNBC). The investigation study was extended with active six hit compounds (9a, 9d, 9h, 10d, 10f, and 11g) in two other different cancer cell lines (MCF-7 and MDA-MB-453), each representing a separate class of breast cancers (MCF-7: hormone receptor/HR-positive; MDA-MB-453: human epidermal growth factor 2 receptor/HER2 positive).
We also included normal mammary epithelial MCF-10A cells in our experiments to confirm if the growth-inhibitory activities of the selected compounds are truly cancer cell-specific. The activity data from MCF-7 and MDA-MB-453 cell lines (tested at 1 µM, 10 µM and 25 µM) and activity data from MCF-10A cell line (tested at 25 µM, 50 µM and 100 µM) are summarized in Table 3.
(§1) To evaluate cell viability, the MTT assay was conducted following standard procedures. After 72 h of cell incubation with or without each compound, cell viability was assessed using MTT (3-(4,5-dimethylthiazol-2-yl)-2,5-diphenyltetrazolium bromide), which is a colorimetric method for determining the number of viable cells in various assays including proliferation, cytotoxicity, or chemosensitivity. The MTT reagent was added to the cells after removal of the medium and incubated for 3 h at 37 °C in the CO2 incubator. The formazan product, which is […] in the tissue culture medium, was dissolved in DMSO, and the absorbance of the formazan product was directly measured at 595 nm using a multimode plate reader without additional processing. The absorbance values are directly proportional to the number of viable cells in culture. The percentage of viable cells in each group was determined relative to the untreated control cells.

For series [2] the test system is unchanged. The series can be described thus: MTT cell viability assay in MCF-7 cells. Conditions: Homo sapiens, MCF7, 72 h, concentrations 10 µM, 25 µM and 50 μM in Fig. 10, read-out: IC50 against MCF-7 breast cancer cells line.
For series [3], the system named is MDA-MB-231 (human breast cancer) cell line. Kind of series: MTT cell viability assay in MDA-MB-231 cells. Conditions: for inhibition at 25 µM: MDA-MB-231, 25 μM concentration; for IC50: MDA-MB-231, MTT, concentrations 10, 25 and 50 µM, n = 3, read-out: IC50 against MDA-MB-231 breast cancer cell line; for IC50 / viability at 10 µM / viability at 25 µM / viability at 50 µM: 72 h; for viability at 10 µM / viability at 25 µM / viability at 50 µM: Table 2, MDA-MB-231, MTT, read-out: Cell viability (%) ± SD. The method in brief: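 MDA-MB-231 cells in DMEM/10% FBS, used before passage 8, exposed to compounds at several concentrations for 72 h at 37 °C. MTT added for 3 h; formazan dissolved in DMSO and read at 595 nm. Viability expressed as percent of untreated control.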
For orientation: Formazan colour is commonly taken as a measure of viable cells.

For series [4], the system named is normal mammary epithelial MCF-10A cells. Kind of series: MTT cell viability assay in normal MCF-10A cells. Conditions: tested at 25 µM, 50 µM and 100 µM. On the procedure:
as §1, with “We also included normal mammary epithelial MCF-10A cells in our experiments to confirm if the growth-inhibitory activities of the selected compounds are truly cancer cell-specific. The activity data from MCF-7 and MDA-MB-453 cell lines (tested at 1 µM, 10 µM and 25 µM) and activity data from MCF-10A cell line (tested at 25 µM, 50 µM and 100 µM) are summarized in Table 3. To” for “To”

Series [5] can be described thus: MTT cell viability assay in normal MCF-10A cells. Conditions: human, MCF-10A normal mammary epithelial cells, MCF-10A normal cells, read-out: Cell viability (%) ± SD. The procedure: as §1, with “We also included normal mammary epithelial MCF-10A cells in our experiments to confirm if the growth-inhibitory activities of the selected compounds are truly cancer cell-specific. The activity data from MCF-7 and MDA-MB-453 cell lines (tested at 1 µM, 10 µM and 25 µM) and activity data from MCF-10A cell line (tested at 25 µM, 50 µM and 100 µM) are summarized in Table 3. To” for “To”

By viability is commonly meant the share of living cells, or the viability signal relative to a control. As a reminder, the IC50 is the concentration that gives 50% inhibition. By inhibition is commonly meant how much of the control response was suppressed. Consider `CC(=O)OC[C@H]1O[C@@H](n2cc(COc3cc(-c4ccc(C(F)(F)F)cc4)nc4ccnn34)nn2)[C@H](OC(C)=O)[C@@H](OC(C)=O)[C@H]1OC(C)=O` [Compound 10f, (2R,3S,4S,5R,6R)-2-(acetoxymethyl)-6-(4-(((5-(4-(trifluoromethyl)phenyl)pyrazolo[1,5-a]pyrimidin-7-yl)oxy)methyl)-1H-1,2,3-triazol-1-yl)tetrahydro-2H-pyran-3,4,5-triyl triacetate], for which, in series [1], the viability at 1 µM amounted to 51.3 ± 3.1%, the viability at 10 µM amounted to 28.4 ± 0.9% and the viability at 25 µM was found to be 21.1 ± 4.4%. In series [2], the IC50 is 42.1 µM. In series [3], the inhibition at 25 µM was roughly 50%, the IC50 was found to be 31.2 µM, the viability at 10 µM was 69.4 ± 5.36% and the viability at 25 µM amounted to 45.1 ± 3.32%. Moreover, the viability at 50 µM in series [3] came out at 41.2 ± 1.26%. Further, the “growth inhibitory activity against normal breast epithelial cell (MCF-10A) (in words)” value (shortened to “growth inhibitory activity”) in series [4] is “none of these compounds did have any growth inhibitory activity”. In series [5], the viability at 72 h, 25 µM is 86.6 ± 1.5%; the viability at 72 h, 50 µM came out at 88.1 ± 2.8%; the viability at 72 h, 100 µM amounted to 84.2 ± 3%.

In the case of `CC(=O)OC[C@H]1O[C@@H](n2cc(COc3cc(-c4ccc(Cl)cc4)nc4ccnn34)nn2)[C@H](OC(C)=O)[C@@H](OC(C)=O)[C@H]1OC(C)=O` [Compound 10d, (2R,3S,4S,5R,6R)-2-(acetoxymethyl)-6-(4-(((5-(4-chlorophenyl)pyrazolo[1,5-a]pyrimidin-7-yl)oxy)methyl)-1H-1,2,3-triazol-1-yl)tetrahydro-2H-pyran-3,4,5-triyl triacetate], in series [1], the viability at 1 µM was determined as 66 ± 4.7%, the viability at 10 µM is 34 ± 2.5% and the viability at 25 µM stood at 20 ± 2.9%. In addition, the 50% inhibitory concentration (IC50) in series [2] is 40.1 µM. Besides, in series [3], the inhibition at 25 µM is roughly 50%, the concentration for half-maximal inhibition (IC50) worked out at 29.1 µM, the viability at 10 µM was 56.7 ± 8.23% and the viability at 25 µM is 53.3 ± 6.32%. Moreover, the viability at 50 µM in series [3] turned out to be 41 ± 4.91%. Besides, the “growth inhibitory activity” value in series [4] is “none of these compounds did have any growth inhibitory activity”. For the same compound, in series [5], the viability at 72 h, 25 µM is 89.6 ± 2.2%; the viability at 72 h, 50 µM turned out to be 85.6 ± 1.7%; the viability at 72 h, 100 µM stood at 84.4 ± 2.6%.

`CC(=O)OC[C@H]1O[C@@H](n2cc(COc3cc(-c4ccc5ccccc5c4)nc4ccnn34)nn2)[C@H](OC(C)=O)[C@@H](OC(C)=O)[C@@H]1OC(C)=O` [Compound 9h, (2R,3R,4S,5R,6R)-2-(acetoxymethyl)-6-(4-(((5-(naphthalen-2-yl)pyrazolo[1,5-a]pyrimidin-7-yl)oxy)methyl)-1H-1,2,3-triazol-1-yl)tetrahydro-2H-pyran-3,4,5-triyl triacetate]: in series [1], the viability at 1 µM amounted to 79.2 ± 2.6%, the viability at 10 µM came out at 58.7 ± 2.4% and the viability at 25 µM came to 42.3 ± 7.6%. Moreover, in series [2], the half-maximal inhibitory concentration (IC50) was 21.1 µM. In series [3], the inhibition at 25 µM is roughly 50%, the 50% inhibitory concentration (IC50) came to 35.9 µM, the viability at 10 µM is 96.6 ± 3.36% and the viability at 25 µM came to 55.2 ± 7.06%. In addition, in series [3], the viability at 50 µM came to 42.8 ± 5.04%. Moreover, the “growth inhibitory activity” value in series [4] is on record as “none of these compounds did have any growth inhibitory activity”. Moreover, in series [5], the viability at 72 h, 25 µM was determined as 86.8 ± 5.3%; the viability at 72 h, 50 µM worked out at 88.8 ± 3%; the viability at 72 h, 100 µM came to 68.5 ± 3.4%.

For `CC(=O)OC[C@H]1O[C@H](n2cc(COc3cc(-c4ccc(C(C)C)cc4)nc4ccnn34)nn2)[C@@H](OC(C)=O)[C@@H](OC(C)=O)[C@@H]1OC(C)=O` [Compound 11g, (2R,3R,4S,5S,6S)-2-(acetoxymethyl)-6-(4-(((5-(4-isopropylphenyl)pyrazolo[1,5-a]pyrimidin-7-yl)oxy)methyl)-1H-1,2,3-triazol-1-yl)tetrahydro-2H-pyran-3,4,5-triyl triacetate], in series [1], the viability at 1 µM was 70.8 ± 4.2%, the viability at 10 µM is 68.2 ± 3.8% and the viability at 25 µM worked out at 49.1 ± 3.5%. Further, the IC50 in series [2] turned out to be 18.3 µM. Moreover, in series [3], the inhibition at 25 µM was roughly 50%, the half-inhibitory concentration (IC50) was 38.8 µM, the viability at 10 µM was found to be 66.7 ± 8.21% and the viability at 25 µM was found to be 54.3 ± 6.12%. Also, the viability at 50 µM in series [3] stood at 45.3 ± 4.11%. In addition, in series [4], the “growth inhibitory activity” value is recorded as “none of these compounds did have any growth inhibitory activity”. For the same compound, in series [5], the viability at 72 h, 25 µM stood at 89.8 ± 2.8%; the viability at 72 h, 50 µM was determined as 84.2 ± 5.8%; the viability at 72 h, 100 µM was 88 ± 1.5%.

Consider `CC(=O)OC[C@H]1O[C@@H](n2cc(COc3cc(-c4ccc(Cl)cc4)nc4ccnn34)nn2)[C@H](OC(C)=O)[C@@H](OC(C)=O)[C@@H]1OC(C)=O` [Compound 9d, (2R,3R,4S,5R,6R)-2-(acetoxymethyl)-6-(4-(((5-(4-chlorophenyl)pyrazolo[1,5-a]pyrimidin-7-yl)oxy)methyl)-1H-1,2,3-triazol-1-yl)tetrahydro-2H-pyran-3,4,5-triyl triacetate], for which, in series [1], the viability at 1 µM was 100 ± 4.5%, the viability at 10 µM is 69.8 ± 1.8% and the viability at 25 µM worked out at 62.8 ± 3%. In addition, the half-maximal inhibitory concentration (IC50) in series [2] was 15.3 µM. For the same compound, in series [3], the inhibition at 25 µM was roughly 50%, the IC50 was determined as 43.1 µM, the viability at 10 µM is 75.6 ± 9.76% and the viability at 25 µM amounted to 61 ± 8.47%. For the same compound, the viability at 50 µM in series [3] came out at 58.6 ± 5.61%. Besides, in series [4], the “growth inhibitory activity” value is given as “none of these compounds did have any growth inhibitory activity”. In series [5], the viability at 72 h, 25 µM was determined as 87.8 ± 2.8%; the viability at 72 h, 50 µM was determined as 85.6 ± 0.7%; the viability at 72 h, 100 µM came out at 82 ± 1.5%.

For `CC(=O)OC[C@H]1O[C@@H](n2cc(COc3cc(-c4ccc(C)cc4)nc4ccnn34)nn2)[C@H](OC(C)=O)[C@@H](OC(C)=O)[C@@H]1OC(C)=O` [Compound 9a, (2R,3R,4S,5R,6R)-2-(acetoxymethyl)-6-(4-(((5-(p-tolyl)pyrazolo[1,5-a]pyrimidin-7-yl)oxy)methyl)-1H-1,2,3-triazol-1-yl)tetrahydro-2H-pyran-3,4,5-triyl triacetate], in series [1], the viability at 1 µM was 68.7 ± 1.18%, the viability at 10 µM is 41.3 ± 3.6% and the viability at 25 µM was found to be 21.7 ± 4%. Moreover, the IC50 in series [2] came out at 35.4 µM. In addition, in series [3], the inhibition at 25 µM is roughly 50%, the IC50 worked out at 29.6 µM, the viability at 10 µM is 70.1 ± 9.53% and the viability at 25 µM was 51 ± 9.19%. In addition, the viability at 50 µM in series [3] amounted to 35.3 ± 4.29%. Also, the “growth inhibitory activity” value in series [4] is “none of these compounds did have any growth inhibitory activity”. In series [5], the viability at 72 h, 25 µM turned out to be 88.6 ± 1.5%; the viability at 72 h, 50 µM is 84.3 ± 2.9%; the viability at 72 h, 100 µM was 84.2 ± 3%.
